Tested on: PDE4
Experiment: PDE4 inhibition, scintillation proximity assay (SPA);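 as to PDE4 Inhibitory Activity (concentration for the inhibition rate of 50%): A below 100 nM B 100 to below 1000 nM C 1000 nM or more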
Type: biochemical
Conditions: scintillation proximity assay (SPA); evaluated as classes A, B, C; read-out: PDE4 Inhibitory Activity (concentration for the inhibition rate of 50%)
Procedure, shortened: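 Compound pre-diluted 1:10 in 50 mM Tris-HCl pH 7.4, 8.3 mM MgCl2, 1.7 mM EGTA, 3 mg/mL BSA, then incubated with PDE4 and [2,8-3H]-cAMP for 120 min at room temperature. Product captured on ZnSO4-containing YSi-SPA beads for 15 min; radioactivity counted against no-enzyme blank and DMSO control.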

**Q.** `OC(c1ccc(-c2nccs2)c2oc(N3CC4CCC(C3)N4)nc12)C(F)F` (centres unmarked) [Example 128, 1-(2-(3,8-Diazabicyclo[3.2.1]octan-3-yl)-7-(thiazol-2-yl)benzo[d]oxazol-4-yl)-2,2-difluoroethan-1-ol] was tested. Which IC50 did it give?
**A.** Its IC50 is under 100 nM.

**Q.** For `OCc1cc(-c2nccs2)c2oc(N3CC4CCC(C3)N4)nc2c1OC(F)(F)F` [Example 201, (2-(3,8-Diazabicyclo[3.2.1]octan-3-yl)-7-(thiazol-2-yl)-4-(trifluoromethoxy)benzo[d]oxazol-5-yl)methanol], which IC50 is on record?
**A.** The IC50 was under 100 nM.

**Q.** Which IC50 does the source give for `CCOC(=O)c1cc(-c2nccs2)c2oc(N3CC4CC(C3)N4)nc2c1` [Example 87, Ethyl 2-(3,6-diazabicyclo[3.1.1]heptan-3-yl)-7-(thiazol-2-yl)benzo[d]oxazole-5-carboxylate] here?
**A.** The IC50 was under 100 nM.

**Q.** With `O=C(c1cc(-c2nccs2)c2oc(N3CC4CCC(C3)N4)nc2c1)N1CCC1` [Example 97, (2-(3,8-Diazabicyclo[3.2.1]octan-3-yl)-7-(thiazol-2-yl)benzo[d]oxazol-5-yl)(azetidin-1-yl)methanone] as the molecule, how does the IC50 read?
**A.** The IC50 was under 100 nM.

**Q.** For `NS(=O)(=O)c1cc(-c2nccs2)c2oc(N3CC4CCC(C3)N4)nc2c1` [Example 57, 2-(3,8-Diazabicyclo[3.2.1]octan-3-yl)-7-(thiazol-2-yl) benzo[d]oxazole-5-sulfonamide], which IC50 is on record?
**A.** Its IC50 is under 100 nM.

**Q.** With `FC(F)(F)COC(c1cc(-c2nccs2)c2oc(N3CC4CC(C3)N4)nc2c1)C(F)(F)F` (centres unmarked) [Example 151, 2-(3,6-Diazabicyclo[3.1.1]heptan-3-yl)-7-(thiazol-2-yl)-5-(2,2,2-trifluoro-1-(2,2,2-trifluoroethoxy)ethyl)benzo[d]oxazole] as the molecule, how does the IC50 read?
**A.** Its IC50 is under 100 nM.

**Q.** Which IC50 does the source give for `OC(c1ccc(-c2nccs2)c2oc(N3CC4CC(C3)N4)nc12)C(F)(F)F` (centres unmarked) [Example 121, 1-(2-(3,6-Diazabicyclo[3.1.1]heptan-3-yl)-7-(thiazol-2-yl)benzo[d]oxazol-4-yl)-2,2,2-trifluoroethan-1-ol] here?
**A.** The IC50 was under 100 nM.

**Q.** With `CC(O)(c1ccc(-c2nccs2)c2oc(N3CC4CC(C3)N4)nc12)C(F)(F)F` (centres unmarked) [Example 234, 2-(2-(3,6-Diazabicyclo[3.1.1]heptan-3-yl)-7-(thiazol-2-yl)benzo[d]oxazol-4-yl)-1,1,1-trifluoropropan-2-ol] as the molecule, how does the IC50 read?
**A.** The IC50 was under 100 nM.

**Q.** `OC(c1cc(-c2nccs2)c2oc(N3CC4CC(C3)N4)nc2c1OC(F)(F)F)C(F)F` (centres unmarked) [Example 207, 1-(2-(3,6-Diazabicyclo[3.1.1]heptan-3-yl)-7-(thiazol-2-yl)-4-(trifluoromethoxy)benzo[d]oxazol-5-yl)-2,2-difluoroethan-1-ol] was tested. Which IC50 did it give?
**A.** The IC50 was under 100 nM.

**Q.** Which IC50 does the source give for `CC(O)C(F)(F)Oc1ccc(-c2cscn2)c2oc(N3CC4CCC(C3)N4)nc12` (centres unmarked) [Example 310, 1-((2-(3,8-Diazabicyclo[3.2.1]octan-3-yl)-7-(thiazol-4-yl)benzo[d]oxazol-4-yl)oxy)-1,1-difluoropropan-2-ol] here?
**A.** Its IC50 is under 100 nM.

**Q.** With `N#CCOc1cc(-c2nccs2)c2oc(N3CC4CCC(C3)N4)nc2c1` [Example 73, 2-((2-(3,8-Diazabicyclo[3.2.1]octan-3-yl)-7-(thiazol-2-yl)benzo[d]oxazol-5-yl)oxy)acetonitrile] as the molecule, how does the IC50 read?
**A.** Its IC50 is under 100 nM.

**Q.** Which IC50 does the source give for `COc1ccc(-c2nccs2)c2oc(N3CC4CCCC(C3)N4)nc12` [Example 77, 2-(3,9-Diazabicyclo[3.3.1]nonan-3-yl)-4-methoxy-7-(thiazol-2-yl)benzo[d]oxazole] here?
**A.** The IC50 was under 100 nM.

**Q.** For `COC(C)(C)COC(c1ccc(-c2nccs2)c2oc(N3CC4CC(C3)N4)nc12)C(F)(F)F` (centres unmarked) [Example 281, 2-(3,6-Diazabicyclo[3.1.1]heptan-3-yl)-7-(thiazol-2-yl)-4-(2,2,2-trifluoro-1-(2-methoxy-2-methylpropoxy)ethyl)benzo[d]oxazole], which IC50 is on record?
**A.** The IC50 was under 100 nM.

Same assay, conditions: scintillation proximity assay; class symbols; read-out: PDE4 Inhibitory Activity

**Q.** For `C=CC(F)(F)Oc1ccc(-c2nccs2)c2oc(N3CC4CC(C3)N4)nc12` [Example 351, 2-(3,6-diazabicyclo[3.1.1]heptan-3-yl)-4-((1,1-difluoroallyl)oxy)-7-(thiazol-2-yl)benzo[d] oxazole], which IC50 is on record?
**A.** The IC50 was under 100 nM.

— patent publication US10669283B2, “Compound and pharmacologically acceptable salt thereof” (MEIJI SEIKA PHARMA CO., LTD., priority 2016, dated 2020)
